# Read-outs that look alike come from different tables or passages of the source.
# Experiments:
# [1] = system: patients with active severe rheumatoid arthritis; conditions: for Serum C-reactive protein: normal reference range <10 mg/l; for Rheumatoid factor: normal reference range <14 IU/ml
# Experimental: If grade 3 or 4 toxicity occurs at the dose of 200 mg/day, the patient is removed from the study.
# On each visit complete physical check up is performed (including blood pressure, pulse, body weight) and the following parameters will be assessed:
# The oral glucocorticoid dose is required to be 15 mg or less of prednisone or equivalent.
# A dose-escalation scheme is used. The starting dose is 200 mg per day for 2 weeks given as one 100 mg capsule taken in the morning and another in the afternoon.
# The injected joints were omitted from efficacy analyses.
# The primary efficacy measures were: change in the number of tender and swollen joints among the 66 diarthrodial joints, patient assessed pain and disease activity as estimated using the visual analogue scales (VAS), change in the blood erythrocyte sedimentation rate (ESR) and the serum C-reactive protein (CRP) level, and change in the health assessment questionnaire (HAQ) score. […] Serum CRP and blood ESR are measured prior to the study and on the study weeks 2, 4, 8, and 12.
smiles,measurement,setting,value
CS(=O)(=O)O.Cc1ccc(NC(=O)c2ccc(CN3CCN(C)CC3)cc2)cc1Nc1nccc(-c2cccnc2)n1 [SALT I],RA status,"patient with severe RA; January 2003, 400 mg daily, prior RA medication discontinued",still in remission
same,occasional macroscopic hematuria (RA-associated glomerulonephritis),"patient with severe RA; Jun. 14, 2001",had ceased
same,patient-reported RA condition,"patient with severe RA; Jun. 14, 2001, 400 mg/day, prednisone reduced to 5 mg o.d.",further subjective improvement of their RA
same,RA status,patient with severe RA; September 2001,still in remission
same,RA condition,"patient with severe RA; after 2 and 5 months of treatment, with prednisone 5 mg/day",further major improvements
same,patient-reported general condition,"patient with severe RA; after several days, with prednisone 5 mg/day, 600 mg then 400 mg/day orally",improved joint motility and decrease of wrist swelling
same,patient-reported RA condition,"patient with severe RA; control visit April 17, 600 mg/day for nine days, pause, then 400 mg/day from April 11",improved joint motility and decreased swelling particularly in the wrists
same,"anti-rheumatic effect, duration",[1]; 2 patients who completed the 12-week study,sustained during the study period
same,outcome measures during SALT I therapy (overall),"[1]; 3 patients, 200 to 400 mg/day, up to 12 weeks",All outcome measures improved
same,HAQ,"[1]; Patient 1, week 8, baseline 1.75",1.5
same,Serum C-reactive protein,"[1]; Patient 1, week 8, baseline 10",11 mg/L
same,Erythrocyte sedimentation rate,"[1]; Patient 1, week 8, baseline 38",23 mm/h
same,Patient-assessed disease activity (VAS),"[1]; Patient 1, week 8, baseline 77",39 mm
same,Pain (VAS),"[1]; Patient 1, week 8, baseline 79",42 mm
same,Rheumatoid factor,"[1]; Patient 1, week 8, baseline 197",65 IU/ml
same,HAQ,"[1]; Patient 2, week 12, baseline 1.75",0.75
same,Serum C-reactive protein,"[1]; Patient 2, week 12, baseline 36",12 mg/L
same,Pain (VAS),"[1]; Patient 2, week 12, baseline 77",26 mm
same,Patient-assessed disease activity (VAS),"[1]; Patient 2, week 12, baseline 96",35 mm
same,Rheumatoid factor,"[1]; Patient 2, week 12, baseline 501",270 IU/ml
same,Erythrocyte sedimentation rate,"[1]; Patient 2, week 12, no baseline value",13 mm/h
same,HAQ,"[1]; Patient 3, week 12, baseline 1.5",1.1
same,Erythrocyte sedimentation rate,"[1]; Patient 3, week 12, baseline 28",12 mm/h
same,Pain (VAS),"[1]; Patient 3, week 12, baseline 37",22 mm
same,Serum C-reactive protein,"[1]; Patient 3, week 12, baseline 42",10 mg/L
same,Patient-assessed disease activity (VAS),"[1]; Patient 3, week 12, baseline 69",23 mm
same,Morning stiffness,"[1]; Patient no. 1, during the study, from 45 min",none
same,blood erythrocyte sedimentation rate,"[1]; Patient no. 3, 24 weeks",17 mm/h
same,duration of the morning stiffness,"[1]; Patient no. 3, 24 weeks",30 min
same,serum CRP level,"[1]; Patient no. 3, 24 weeks",9 mg/L
same,serum rheumatoid factor level,"[1]; Patient no. 3, 24 weeks",139 IU/ml
same,number of swollen joints,"[1]; Patient no. 3, 24 weeks, 400 mg o.d.",15
same,Morning stiffness,"[1]; Patient no. 3, during the study (12 weeks), from 180 min",75 min
same,response of rheumatoid arthritis to treatment,[1]; all 3 patients,responded favorably
same,joint pain reported by all patients,"[1]; first week of treatment, subsided below baseline during second study week",increased joint pain
